The target of assay [1] is β-catenin/BCL9 PPI (Homo sapiens (Human), UniProt P35222). As to the kind of experiment: AlphaScreen competitive inhibition assay of β-catenin/BCL9 PPI. The following applies: mean ± standard deviation (n = 3). The format is binding. The gist of the method:
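5 nM biotinylated BCL9 and 50 nM His6-β-catenin were preincubated 30 min in pH 7.4 Hepes/NaCl/Triton/BSA buffer, then with inhibitor for 1 h, then 10 μg/mL donor/acceptor beads for 1 h, with 1% DMSO. IC50 came from nonlinear fitting, and Ki was calculated from IC50 by the Wang equation.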

For assay [2], the system named is β-catenin/BCL9 PPI. Briefly: Cell-based co-IP, β-catenin/BCL9. The following applies: HCT116 cells, 24 h. Here is the method: (§1) Co-IP Experiments. HCT116 cancer cells with hyperactive β-catenin signaling at 1×10^6 cells/mL were treated with different concentrations of the inhibitor for 24 h. Cells were then lysed in buffer containing 50 mM Tris, pH 7.4, 150 mM NaCl, 1% Nonidet P-40, 2 mM EDTA and protease inhibitors. The cell lysates were pre-adsorbed to A/G plus agarose (sc-2003, Santa Cruz Biotechnology) at 4° C. for 1 h. Pre-adsorbed lysates were incubated with a specific primary antibody against β-catenin (610153, BD Biosciences) overnight at 4° C. A/G plus agarose was then added to the lysate mixture and incubated for 3 h. The beads were washed four times with buffer B (20 mM Tris pH 7.4, 150 mM NaCl, 0.1% NP-40) at 4° C. The bound protein was eluted by boiling in the SDS sample buffer and loaded onto 8% SDS polyacrylamide gel for electrophoretic analysis. Separated proteins were transferred onto nitrocellulose membranes for immunoblot analysis. The antibodies against BCL9 (ab37305, Abcam) and E-cadherin (610404, BD Biosciences) were incubated with the membranes, respectively. IRDye 680LT goat anti mouse IgG (827-11080, LiCOR) and IRDye 800CW goat anti rabbit IgG (926-32211, LiCOR) were used as the secondary antibodies. The images were detected by the Odyssey Infrared Imaging System (LiCOR). Experiments were performed in triplicate.

A further assay concerns β-catenin/E-cadherin PPI. As to the kind of experiment: Cell-based co-IP, β-catenin/E-cadherin. The following applies: HCT116 cells, 24 h; concentrations sufficient to disrupt β-catenin/BCL9 PPI. Here is the method:
as §1

Assay [3] has as its system Wnt/β-catenin transactivation (TOPFlash) in SW480 cells. As to the kind of experiment: Wnt-responsive TOPFlash luciferase reporter assay. In kind it is cell-based. The settings on record: 24 h. Here is the method:
(§2) Cell Transfection and Luciferase Assay. FuGENE6 (E269 Å, Promega) 96 well plate format was used for the transfection of SW480 cells according to the manufacturer's instruction. SW480 cells were co-transfected with 60 ng of the TOPFlash or FOPFlash firefly luciferase reporter gene and 40 ng of the Renilla luciferase pCMV-RL normalization reporter gene. Cells were cultured in DMEM and 10% FBS at 37° C. for 24 h, and then different concentrations of inhibitors or DMSO was added and incubated in DMEM with 5% FBS. After 24 h, the luciferase reporter activity was measured using the Dual-Glo system (E2940, Promega). Normalized luciferase activity in response to the treatment with inhibitors was compared with that obtained from the cells treated with DMSO. Experiments were performed in triplicate.

In assay [4] the test system is FOPFlash reporter in SW480 cells. Briefly: FOPFlash luciferase reporter assay. In kind it is cell-based. The following applies: testing concentrations. Here is the method: as §2
Assay [5] relates to Wnt target genes Axin2, BCL9L, MMP7 in SW480 cells. Briefly: Quantitative real-time PCR of Wnt target genes. The format is cell-based, human. The following applies: 24-h incubation. Here is the method:
Quantitative Real Time PCR analysis. SW480 cells at 1×10^6 cells/mL were treated with inhibitors at different concentrations for 24 h. Total RNAs were extracted with TRIzol (15596026, Life Technologies), and the cDNA was synthesized with the superscript III first-strand kit (18080-051, Invitrogen). qPCR experiments were performed using the iQ™ SYBR green supermix kit (170-8880, BIO-RAD) on an CFX96 Real Time System (BIO-RAD). The threshold cycle (CT) values were normalized to that of internal reference GAPDH. Experiments were performed in triplicate. The primer pairs are shown below

A further assay deals with Axin2. As to the kind of experiment: Western blot of Wnt target gene protein expression. In kind it is cell-based. The following applies: SW480 cells, 24-h incubation. Here is the method: Western Blotting of Wnt Target Genes. SW480 cells at 1×10^6 cells/mL were treated with different concentrations of inhibitors for 24 h. Cells were lysed in buffer containing 50 mM Tris (pH 7.4), 150 mM NaCl, 1% Nonidet P-40, 0.1% SDS, 0.5% sodium deoxycholate, and protease inhibitors. After centrifugation at 12,000 rpm for 20 min at 4° C., the supernatant was boiling in the SDS sample buffer and loaded onto an 8% SDS polyacrylamide gel for electrophoretic analysis. Separated proteins were transferred onto nitrocellulose membranes for immunoblot analysis. The antibodies against Axin2 (MA5-15015, Thermo Fisher) and f-tubulin (sc-55529, Santa Cruz Biotechnology) were incubated with the membranes overnight at 4° C., respectively. IRDye 680LT goat anti-mouse IgG (827-11080, LiCOR) or IRDye 800CW goat anti-rabbit IgG (827-08365, LiCOR) was used as the secondary antibody. The images were detected by the Odyssey Infrared Imaging System (LiCOR). Experiments were performed in duplicate.

Another assay relates to MCF10A cells. As to the kind of experiment: MTS cell growth inhibition, normal breast epithelial cells. The format is cell-based, human. The following applies: 72 h. Here is the method:
MTS Cell Growth Inhibition Experiments. Colorectal cancer cells (SW480 and HCT116) and triple negative breast cancer cells (MDA-MB-231 and MDA-MB-468) were seeded in 96-well plates at 5×10^3 cells/well in DMEM with 10% fetal bovine serum (FBS), maintained overnight at 37° C., and then incubated with the tested compounds at various concentrations in DMEM with 5% FBS. Human mammary epithelial MCF10A cells were seeded in 96-well plates at 1×10^4 cells/well in MEGM (CC-3150, Lonza) with 100 ng/mL cholera toxin, maintained overnight at 37° C., and incubated with the tested compounds at various concentrations. Cell viability was monitored after 72 h using a freshly prepared mixture of 1 part phenazine methosulfate (PMS, Sigma) solution (0.92 mg/mL) and 19 parts 3-(4,5-dimethylthiazol-2-yl)-5-(3-carboxymethoxyphenyl)-2-(4-sulfophenyl)-2H-tetrazolium (MTS, Promega) solution (2 mg/mL). Cells were incubated in 10 μL of this solution at 37° C. for 3 h, and the UV absorption at 490 nm (A490) was measured. The effect of each compound is expressed as the concentration required to reduce A490 by 50% (IC50) relative to DMSO-treated cells. Experiments were performed in triplicate.

β-catenin/BCL9 PPI (Homo sapiens (Human), UniProt P35222), sequence (P35222 whole entry): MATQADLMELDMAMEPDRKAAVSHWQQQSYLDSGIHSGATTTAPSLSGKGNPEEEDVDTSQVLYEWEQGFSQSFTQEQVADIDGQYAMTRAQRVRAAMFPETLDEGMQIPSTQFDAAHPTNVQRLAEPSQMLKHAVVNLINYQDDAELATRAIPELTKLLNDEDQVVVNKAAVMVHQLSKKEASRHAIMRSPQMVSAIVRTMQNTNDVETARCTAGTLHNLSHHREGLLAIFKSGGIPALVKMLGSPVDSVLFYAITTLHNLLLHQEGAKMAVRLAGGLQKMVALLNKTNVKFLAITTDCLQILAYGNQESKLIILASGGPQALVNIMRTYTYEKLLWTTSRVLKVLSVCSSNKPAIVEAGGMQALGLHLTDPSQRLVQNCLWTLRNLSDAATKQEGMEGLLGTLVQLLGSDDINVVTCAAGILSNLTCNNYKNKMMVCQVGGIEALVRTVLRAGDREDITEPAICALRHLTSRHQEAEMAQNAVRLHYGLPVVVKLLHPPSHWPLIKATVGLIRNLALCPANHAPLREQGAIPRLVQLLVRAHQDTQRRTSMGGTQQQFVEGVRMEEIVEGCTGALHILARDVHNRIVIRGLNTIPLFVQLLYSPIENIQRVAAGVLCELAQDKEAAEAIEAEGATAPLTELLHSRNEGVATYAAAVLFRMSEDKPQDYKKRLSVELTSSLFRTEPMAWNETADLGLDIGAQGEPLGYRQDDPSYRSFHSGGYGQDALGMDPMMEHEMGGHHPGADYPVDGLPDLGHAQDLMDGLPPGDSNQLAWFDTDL

Consider `CC(C)(C)[C@H]1CC[C@@H](c2cc(C(=O)N3CCC(Oc4cc(N5CCNCC5)ccc4C#N)CC3)ccc2O[C@H]2CCNC2)CC1` [Compound 44], for which the Ki on β-catenin/BCL9 PPI [1] (derived from IC50, read-out: Ki ± SD) is at most 2000 nM. In addition, the values for the IC50 (at β-catenin/BCL9 PPI [1]; in assay [3]) were at most 2000 nM and 2600 nM, respectively. Further, the “disruption of β-catenin/BCL9 interaction (co-IP)” value with β-catenin/BCL9 PPI [2] is recorded as “effectively disrupted β-catenin/BCL9 interaction”. Moreover, the “effect on β-catenin/E-cadherin PPI (co-IP)” value with β-catenin/E-cadherin PPI was “did not affect the β-catenin/E-cadherin PPI”. Further, in assay [4], the FOPFlash luciferase activity entry is given as “not affected”. For the same molecule, in assay [5], the “effect on house-keeper gene HPRT (qPCR)” value is “no effect”. Moreover, the “transcription of Wnt target genes Axin2, BCL9L, MMP7 (qPCR)” value in assay [5] is recorded as “downregulated transcriptions”. Also, the “protein expression level of Axin2” value in the assay on Axin2 was “significant decreased”. Besides, the “selectivity over normal breast epithelial MCF10A cells” value in the assay with MCF10A cells was over 4 fold.
